According to US8110689B2, “Benzanilides with insecticidal activity” (Bayer Cropsciene AG, priority 2006, dated 2012):

Tests used:
[1] = test system: organophosphorous- and carbamate-resistant Myzus persicae; conditions: 100 ppm; 7 days after application; 28° C. greenhouse

melting point [°C]	Structure (SMILES)	insect mortality [1] [%]
73 to 79	CSC[C@H](C)NC(=O)c1c(Cl)cccc1C(=O)Nc1ccc(Cc2cc(C(F)(F)F)cc(C(F)(F)F)c2)nc1C	
162 to 165	Cc1cc(Cc2cc(C(F)(F)F)cc(C(F)(F)F)c2)ccc1NC(=O)c1cccc(Cl)c1C(=O)N[C@@H](C)C[S+](C)[O-] (stereo partly shown)	
155 to 158	Cc1cc(Cc2cc(C(F)(F)F)cc(C(F)(F)F)c2)ccc1NC(=O)c1cccc(Cl)c1C(=O)N[C@@H](C)CS(C)(=O)=O	
85 to 94	CSC[C@H](C)NC(=O)c1c(C)cccc1C(=O)Nc1ccc(Cc2cc(C(F)(F)F)cc(C(F)(F)F)c2)cc1C	

More lines, now with the values behind:

Structure (SMILES)	melting point [°C]	insect mortality [1] [%]
CSC[C@H](C)NC(=O)c1c(Cl)cccc1C(=O)Nc1ccc(Cc2cc(C(F)(F)F)cc(C(F)(F)F)c2)cc1C	57 to 62	
CSC[C@H](C)NC(=O)c1c(Cl)cccc1C(=O)Nc1ccc(Cc2cc(C(F)(F)F)cc(C(F)(F)F)c2)cc1C [Compound No. 19]		100
CSC[C@H](C)NC(=O)c1c(Cl)cccc1C(=O)Nc1ccc(Cc2cc(Br)cc(Br)c2)cc1C [compound 152]		100
